# Measured values from US20130150377A1, “Tetrahydropyridinyl and Dihydropyrrolyl Compounds and the Use Thereof” (SHIONOGI & CO., LTD., priority 2008, published 2013).
# Target: T1, N-type calcium channel (NTCC) (Homo sapiens, UniProt Q00975)
# T1 construct: endogenous in cells; host or cells: differentiated IMR32 cells (ATCC)
# Assay: FLIPR calcium mobilization assay for N-type calcium channel (differentiated IMR32 cells)
# Format: cell-based
# Details: N-type calcium channel blockers, calcium mobilization in vitro assay
# Description: Cell maintenance and differentiation. Unless noted otherwise, cell culture reagents were purchased from Mediatech of Herndon, Md. IMR32 cells (American Type Culture Collection, ATCC, Manassas, Va.) were routinely cultured in growth medium consisting of minimum essential medium containing 10% fetal bovine serum (FBS, Hyclone, Logan, Utah), 100 U/mL penicillin, 100 μg/mL streptomycin, 2 mM L-glutamine, 1 mM sodium pyruvate, and 1×MEM non-essential amino acids. 80-90% confluent flasks of cells were differentiated using the following differentiation medium: Growth medium plus 1 mM dibutyryl cyclic AMP (Sigma, St. Louis, Mo.), and 2.5 μM bromodeoxyuridine (Sigma). Cells were differentiated for 8 days by replacing differentiation medium every 2-3 days.
# FLIPR Calcium Mobilization Assay for N-type Calcium Channel.
# One day prior to performing this assay, differentiated IMR32 cells were treated with 1× CellStripper, and seeded on poly-D-lysine-coated 96-well clear-bottom black plates (Becton Dickinson, Franklin Lakes, N.J.) at 200,000 cells/well. On the day of the assay, the cell plates were washed with IMR32 buffer (127 mM NaCl, 1 mM KCl, 2 mM MgCl2, 700 μM NaH2PO4, 5 mM CaCl2, 5 mM NaHCO3, 8 mM HEPES, 10 mM glucose, pH 7.4), then pre-stimulated with KCl and loaded as follows: […] of IMR32 buffer, 0.05 mL of each compound tested diluted in IMR32 buffer containing 20 μM nitrendipine (Sigma), and 0.1 mL KCl dissolved in IMR32 buffer, plus Fluo-4 were added (3 μM final concentration, Molecular Probes, Eugene, Oreg.). Final test compound concentrations ranged from about 846 pM to about 17 μM, final nitrendipine concentration was 5 μM, and final KCl concentration was 90 mM. After 1 hour, the cells were washed twice with 0.05 mL of each compound tested in nitrendipine-containing IMR32 buffer (no KCl or Fluo-4), and then replaced with 0.1 mL of each compound tested in nitrendipine-containing IMR32 buffer. Plates were then transferred to a Fluorimetric Imaging Plate Reader (FLIPR^96, Molecular Devices, Inc., Sunnyvale, Calif.) for assay. The FLIPR measured basal Fluo-4 fluorescence for 315 seconds (i.e., 5 minutes and 15 seconds), then added 0.1 mL KCl agonist dissolved in IMR32 buffer and measured fluorescence for another 45 seconds. Final test compound concentrations on the cells after FLIPR read ranged from about 846 pM to about 17 μM, final nitrendipine concentration was 5 μM, and final KCl concentration was 90 mM. Data were collected over the entire time course and analyzed using Excel, Graph Pad Prism (version 3.02, Graph Pad, San Diego, Calif.), or an in-house non-linear regression analysis software.
# T1 sequence (Q00975 whole entry): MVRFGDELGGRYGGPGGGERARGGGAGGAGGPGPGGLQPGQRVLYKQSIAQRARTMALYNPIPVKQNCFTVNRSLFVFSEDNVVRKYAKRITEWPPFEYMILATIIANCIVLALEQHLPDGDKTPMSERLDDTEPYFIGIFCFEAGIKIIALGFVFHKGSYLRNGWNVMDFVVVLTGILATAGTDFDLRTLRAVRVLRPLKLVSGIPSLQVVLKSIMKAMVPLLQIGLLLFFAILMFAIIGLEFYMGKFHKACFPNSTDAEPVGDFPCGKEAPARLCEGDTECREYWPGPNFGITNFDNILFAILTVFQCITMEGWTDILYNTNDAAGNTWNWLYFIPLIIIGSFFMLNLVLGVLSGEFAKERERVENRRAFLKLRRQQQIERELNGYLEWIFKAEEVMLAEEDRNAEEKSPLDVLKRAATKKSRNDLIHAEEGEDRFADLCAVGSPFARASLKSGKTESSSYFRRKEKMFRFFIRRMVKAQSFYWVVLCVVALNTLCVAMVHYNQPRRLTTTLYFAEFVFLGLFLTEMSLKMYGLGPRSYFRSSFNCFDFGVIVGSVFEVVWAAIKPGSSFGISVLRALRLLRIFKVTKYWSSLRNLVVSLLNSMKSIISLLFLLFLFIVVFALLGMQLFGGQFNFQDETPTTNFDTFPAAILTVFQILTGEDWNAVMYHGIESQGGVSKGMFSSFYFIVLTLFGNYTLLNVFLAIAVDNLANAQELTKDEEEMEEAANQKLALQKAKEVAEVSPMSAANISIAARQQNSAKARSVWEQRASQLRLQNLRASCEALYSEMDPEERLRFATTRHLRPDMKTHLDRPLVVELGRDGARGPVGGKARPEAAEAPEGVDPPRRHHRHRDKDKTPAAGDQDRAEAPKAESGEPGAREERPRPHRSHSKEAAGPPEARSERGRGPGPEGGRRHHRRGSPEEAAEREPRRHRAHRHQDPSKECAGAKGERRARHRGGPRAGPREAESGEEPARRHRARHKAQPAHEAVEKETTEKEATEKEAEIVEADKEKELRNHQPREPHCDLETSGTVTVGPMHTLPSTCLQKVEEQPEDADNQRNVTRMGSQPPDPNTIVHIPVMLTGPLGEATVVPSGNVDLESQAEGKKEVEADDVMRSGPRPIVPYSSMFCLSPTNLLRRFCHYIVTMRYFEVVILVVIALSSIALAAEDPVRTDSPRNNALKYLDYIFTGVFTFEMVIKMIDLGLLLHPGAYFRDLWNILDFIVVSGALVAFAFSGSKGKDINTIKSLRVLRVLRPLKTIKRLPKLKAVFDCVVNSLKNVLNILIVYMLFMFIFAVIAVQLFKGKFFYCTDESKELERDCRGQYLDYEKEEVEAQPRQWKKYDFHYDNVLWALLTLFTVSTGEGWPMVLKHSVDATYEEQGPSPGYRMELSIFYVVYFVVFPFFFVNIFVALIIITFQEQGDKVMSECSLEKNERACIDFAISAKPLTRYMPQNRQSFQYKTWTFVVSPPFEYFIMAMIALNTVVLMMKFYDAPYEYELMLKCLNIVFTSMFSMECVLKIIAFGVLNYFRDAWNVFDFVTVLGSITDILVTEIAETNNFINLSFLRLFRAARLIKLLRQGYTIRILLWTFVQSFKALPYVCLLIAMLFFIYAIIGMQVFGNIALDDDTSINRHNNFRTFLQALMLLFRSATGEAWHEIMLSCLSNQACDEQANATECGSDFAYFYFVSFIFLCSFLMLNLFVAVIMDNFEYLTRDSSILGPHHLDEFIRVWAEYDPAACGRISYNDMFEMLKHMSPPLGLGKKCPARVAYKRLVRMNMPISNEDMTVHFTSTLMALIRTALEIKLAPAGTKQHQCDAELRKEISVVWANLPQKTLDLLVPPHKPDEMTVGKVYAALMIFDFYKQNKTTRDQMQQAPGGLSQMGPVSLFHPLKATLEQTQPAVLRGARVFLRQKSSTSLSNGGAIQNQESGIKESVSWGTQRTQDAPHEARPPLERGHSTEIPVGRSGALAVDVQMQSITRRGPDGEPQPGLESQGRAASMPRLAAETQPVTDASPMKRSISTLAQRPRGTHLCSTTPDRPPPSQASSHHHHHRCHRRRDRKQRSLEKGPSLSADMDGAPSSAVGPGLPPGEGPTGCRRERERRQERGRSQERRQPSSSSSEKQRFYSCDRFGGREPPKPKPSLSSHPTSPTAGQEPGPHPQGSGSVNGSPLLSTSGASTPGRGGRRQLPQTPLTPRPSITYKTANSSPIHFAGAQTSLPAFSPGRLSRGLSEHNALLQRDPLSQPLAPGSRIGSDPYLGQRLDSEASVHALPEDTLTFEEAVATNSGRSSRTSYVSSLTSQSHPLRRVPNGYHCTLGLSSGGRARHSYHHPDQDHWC
# T1 sequence (P54289 25-956 partner limits assumed): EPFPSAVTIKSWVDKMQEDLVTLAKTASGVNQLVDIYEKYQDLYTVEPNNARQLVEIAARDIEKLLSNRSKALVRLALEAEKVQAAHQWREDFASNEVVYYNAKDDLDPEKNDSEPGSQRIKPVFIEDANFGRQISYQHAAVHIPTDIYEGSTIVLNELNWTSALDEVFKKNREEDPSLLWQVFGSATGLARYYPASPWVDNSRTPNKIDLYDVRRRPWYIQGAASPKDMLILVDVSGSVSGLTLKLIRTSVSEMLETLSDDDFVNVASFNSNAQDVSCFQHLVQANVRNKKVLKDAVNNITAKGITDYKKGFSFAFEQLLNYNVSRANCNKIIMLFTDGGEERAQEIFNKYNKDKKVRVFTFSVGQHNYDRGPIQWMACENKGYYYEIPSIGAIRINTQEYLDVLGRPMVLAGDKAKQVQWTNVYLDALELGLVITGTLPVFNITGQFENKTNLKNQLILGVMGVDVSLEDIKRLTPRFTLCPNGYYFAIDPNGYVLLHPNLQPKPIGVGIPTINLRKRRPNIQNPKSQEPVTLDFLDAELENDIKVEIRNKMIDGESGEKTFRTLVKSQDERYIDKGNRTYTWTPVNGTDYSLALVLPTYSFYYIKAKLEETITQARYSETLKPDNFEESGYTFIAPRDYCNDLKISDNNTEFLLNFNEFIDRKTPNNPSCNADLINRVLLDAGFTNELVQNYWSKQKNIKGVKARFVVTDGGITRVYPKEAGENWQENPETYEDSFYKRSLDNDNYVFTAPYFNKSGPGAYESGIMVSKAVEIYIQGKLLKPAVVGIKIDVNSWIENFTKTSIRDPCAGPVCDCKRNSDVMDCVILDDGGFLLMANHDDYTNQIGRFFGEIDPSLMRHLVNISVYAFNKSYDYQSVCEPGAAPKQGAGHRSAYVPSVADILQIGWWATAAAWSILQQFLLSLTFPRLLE
# T1 sequence (P54289 957-1103 partner limits assumed): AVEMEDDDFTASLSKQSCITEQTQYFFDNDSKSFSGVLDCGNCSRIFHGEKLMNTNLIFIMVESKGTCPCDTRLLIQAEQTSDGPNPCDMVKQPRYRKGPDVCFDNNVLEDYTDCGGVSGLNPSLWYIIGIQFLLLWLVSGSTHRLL
# T1 sequence (P54284 whole entry partner): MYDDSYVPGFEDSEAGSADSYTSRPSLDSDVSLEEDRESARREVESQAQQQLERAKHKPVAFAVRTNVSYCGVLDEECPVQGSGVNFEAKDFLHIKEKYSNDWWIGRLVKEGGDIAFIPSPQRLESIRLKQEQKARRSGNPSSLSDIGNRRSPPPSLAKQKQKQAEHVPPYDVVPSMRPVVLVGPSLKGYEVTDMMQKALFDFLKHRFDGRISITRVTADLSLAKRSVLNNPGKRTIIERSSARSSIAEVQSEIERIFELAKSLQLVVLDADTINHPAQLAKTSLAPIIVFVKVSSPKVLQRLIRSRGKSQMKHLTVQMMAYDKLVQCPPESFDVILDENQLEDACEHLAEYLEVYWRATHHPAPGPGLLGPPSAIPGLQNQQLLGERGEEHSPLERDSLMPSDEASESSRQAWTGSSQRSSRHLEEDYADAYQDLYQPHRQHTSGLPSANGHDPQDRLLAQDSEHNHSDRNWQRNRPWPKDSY
row,Structure (SMILES),IC50
1,"O=S(=O)(c1cccc(C(F)(F)F)c1)N1CC=C(c2cccc(CO)n2)CC1 [1′-(3-Trifluoromethylbenzenesulfonyl)-1′,2′,3′,6′--tetrahydro-[2,4′]bipyridinyl-6-yl]methanol]",4240 nM
2,"O=C(NCC(F)(F)F)c1cccc(C2=CCN(S(=O)(=O)c3cccc(C(F)(F)F)c3)CC2)n1 [1′-(3-Trifluoromethylbenzenesulfonyl)-1′,2′,3′,6′-tetrahydro-[2,4′]-bipyridinyl-6-carboxylic acid 2,2,2-trifluoroethylamide]",30 nM
3,"O=C(NCCC(F)(F)F)c1cccc(C2=CCN(S(=O)(=O)c3cccc(C(F)(F)F)c3)CC2)n1 [1′-(3-Trifluoromethylbenzenesulfonyl)-1′,2′,3′,6′-tetrahydro-[2,4′]-bipyridinyl-6-carboxylic acid 3,3,3-trifluoropropylamide]",50 nM
4,"O=C(NC(CO)CO)c1cccc(C2=CCN(S(=O)(=O)c3cccc(C(F)(F)F)c3)CC2)n1 [1′-(3-Trifluoromethylbenzenesulfonyl)-1′,2′,3′,6′-tetrahydro-[2,4′]bipyridinyl-6-carboxylic acid 1,3-dihydroxyprop-2-ylamide]",90 nM
5,"O=C(NCCO)c1cccc(C2=CCN(S(=O)(=O)c3cccc(C(F)(F)F)c3)CC2)n1 [1′-(3-Trifluoromethylbenzenesulfonyl)-1′,2′,3′,6′-tetrahydro-[2,4′]bipyridinyl-6-carboxylic acid 2-hydroxyethylamide]",70 nM
6,"O=C(NCC(F)(F)F)c1ncccc1C1=CCN(S(=O)(=O)c2cccc(C(F)(F)F)c2)CC1 [1′-(3-Trifluoromethylbenzenesulfonyl)-1′,2′,3′,6′-tetrahydro-[3,4′]bipyridinyl-2-carboxylic acid 2,2,2-trifluoroethylamide]",660 nM
7,"O=C(NCCC(F)(F)F)c1ncccc1C1=CCN(S(=O)(=O)c2cccc(C(F)(F)F)c2)CC1 [1′-(3-Trifluoromethylbenzenesulfonyl)-1′,2′,3′,6′-tetrahydro-[3,4′]bipyridinyl-2-carboxylic acid 3,3,3-trifluoropropylamide]",420 nM
8,"O=C(NCC1CC1)c1ncccc1C1=CCN(S(=O)(=O)c2cccc(C(F)(F)F)c2)CC1 [1′-(3-Trifluoromethylbenzenesulfonyl)-1′,2′,3′,6′-tetrahydro-[3,4′]bipyridinyl-2-carboxylic acid cyclopropylmethylamide]",140 nM
9,"COC(=O)c1ncccc1C1=CCN(S(=O)(=O)c2cccc(C(F)(F)F)c2)CC1 [1′-(3-Trifluoromethylbenzenesulfonyl)-1′,2′,3′,6′-tetrahydro-[3,4′]bipyridinyl-2-carboxylic acid methyl ester]",> 20000 nM
10,"O=C(NCCC(F)(F)F)c1cccc(C2=CCN(S(=O)(=O)c3ccc(OC(F)(F)F)cc3)CC2)n1 [1′-(4-Trifluoromethoxybenzenesulfonyl)-1′,2′,3′,6′-tetrahydro-[2,4′]-bipyridinyl-6-carboxylic acid 3,3,3-trifluoropropylamide]",250 nM
11,"O=C(NCC(F)(F)F)c1ncccc1C1=CCN(S(=O)(=O)c2ccc(OC(F)(F)F)cc2)CC1 [1′-(4-Trifluoromethoxybenzenesulfonyl)-1′,2′,3′,6′-tetrahydro-[3,4′]bipyridinyl-2-carboxylic acid 2,2,2-trifluoroethylamide]",960 nM
12,"O=C(NCCC(F)(F)F)c1ncccc1C1=CCN(S(=O)(=O)c2ccc(OC(F)(F)F)cc2)CC1 [1′-(4-Trifluoromethoxybenzenesulfonyl)-1′,2′,3′,6′-tetrahydro-[3,4′]bipyridinyl-2-carboxylic acid 3,3,3-trifluoropropylamide]",940 nM
13,"O=C(NCC1CC1)c1ncccc1C1=CCN(S(=O)(=O)c2ccc(OC(F)(F)F)cc2)CC1 [1′-(4-Trifluoromethoxybenzenesulfonyl)-1′,2′,3′,6′-tetrahydro-[3,4′]bipyridinyl-2-carboxylic acid cyclopropylmethylamide]",690 nM

# Second part, the molecule after the results:
row,IC50,Structure (SMILES)
1,990 nM,"O=C(NC1CC1)c1cccc(C2=CCN(S(=O)(=O)c3c(F)cc(F)cc3F)CC2)n1 [1′-(2,4,6-Trifluorobenzenesulfonyl)-1′,2′,3′,6′-tetrahydro-[2,4′]bipyridinyl-6-carboxylic acid cyclopropylamide]"
2,190 nM,"O=C(NC1CC1)c1cccc(C2=CCN(S(=O)(=O)c3ccc(Cl)cc3Cl)CC2)n1 [1′-(2,4-Dichlorobenzenesulfonyl)-1′,2′,3′,6′-tetrahydro-[2,4′]bipyridinyl-6-carboxylic acid cyclopropylamide]"
3,1460 nM,"CC(C)CS(=O)(=O)N1CC=C(c2cccc(C(=O)NC3CC3)n2)CC1 [1′-(2-Methylprop-1-ylsulfonyl)-1′,2′,3′,6′-tetrahydro-[2,4′]bipyridinyl-6-carboxylic acid cyclopropylamide]"
4,80 nM,"O=C(NC1CC1)c1cccc(C2=CCN(S(=O)(=O)c3ccccc3C(F)(F)F)CC2)n1 [1′-(2-Trifluoromethylbenzenesulfonyl)-1′,2′,3′,6′-tetrahydro-[2,4′]bipyridinyl-6-carboxylic acid cyclopropylamide]"
5,3100 nM,"O=C(NC1CC1)c1cccc(C2=CCN(S(=O)(=O)CCC(F)(F)F)CC2)n1 [1′-(3,3,3-Trifluoropropylsulfonyl)-1′,2′,3′,6′-tetrahydro-[2,4′]bipyridinyl-6-carboxylic acid cyclopropylamide]"
6,50 nM,"O=C(NC1CC1)c1cccc(C2=CCN(S(=O)(=O)c3cc(Cl)cc(Cl)c3)CC2)n1 [1′-(3,5-Dichlorobenzenesulfonyl)-1′,2′,3′,6′-tetrahydro-[2,4′]bipyridinyl-6-carboxylic acid cyclopropylamide]"
7,80 nM,"O=C(NC1CC1)c1cccc(C2=CCN(S(=O)(=O)c3cccc(Cl)c3)CC2)n1 [1′-(3-Chlorobenzenesulfonyl)-1′,2′,3′,6′-tetrahydro-[2,4′]bipyridinyl-6-carboxylic acid cyclopropylamide]"
8,770 nM,"N#Cc1cc(S(=O)(=O)N2CC=C(c3cccc(C(=O)NC4CC4)n3)CC2)ccc1F [1′-(3-Cyano-4-fluorobenzenesulfonyl)-1′,2′,3′,6′-tetrahydro-[2,4′]bipyridinyl-6-carboxylic acid cyclopropylamide]"
9,50 nM,"N#Cc1cccc(S(=O)(=O)N2CC=C(c3cccc(C(=O)NC4CC4)n3)CC2)c1 [1′-(3-Cyanobenzenesulfonyl)-1′,2′,3′,6′-tetrahydro-[2,4′]bipyridinyl-6-carboxylic acid cyclopropylamide]"
10,40 nM,"O=C(NC1CC1)c1cccc(C2=CCN(S(=O)(=O)c3cccc(OC(F)(F)F)c3)CC2)n1 [1′-(3-Trifluoromethoxybenzenesulfonyl)-1′,2′,3′,6′-tetrahydro-[2,4′]bipyridinyl-6-carboxylic acid cyclopropylamide]"
11,670 nM,"O=C(NC1CC1)c1cccc(C2=CCN(S(=O)(=O)Cc3cccc(C(F)(F)F)c3)CC2)n1 [1′-(3-Trifluoromethylbenzylsulfonyl)-1′,2′,3′,6′-tetrahydro-[2,4′]bipyridinyl-6-carboxylic acid cyclopropylamide]"
12,350 nM,"O=C(NC1CC1)c1cccc(C2=CCN(S(=O)(=O)c3ccc(F)cc3)CC2)n1 [1′-(4-Fluorobenzenesulfonyl)-1′,2′,3′,6′-tetrahydro-[2,4′]bipyridinyl-6-carboxylic acid cyclopropylamide]"
13,430 nM,"O=C(NCC(F)(F)F)c1cccc(C2=CCN(S(=O)(=O)c3ccc(OC(F)(F)F)cc3)CC2)n1 [1′-(4-Trifluoromethoxybenzenesulfonyl)-1′,2′,3′,6′-tetrahydro-[2,4′]-bipyridinyl-6-carboxylic acid 2,2,2-trifluoroethylamide]"
14,1920 nM,"O=C(Nc1ccc(F)cc1)c1cccc(C2=CCN(S(=O)(=O)c3ccc(OC(F)(F)F)cc3)CC2)n1 [1′-(4-Trifluoromethoxybenzenesulfonyl)-1′,2′,3′,6′-tetrahydro-[2,4′]-bipyridinyl-6-carboxylic acid 4-fluorophenylamide]"
15,290 nM,"O=C(NC1CC1)c1cccc(C2=CCN(S(=O)(=O)c3ccc(OC(F)(F)F)cc3)CC2)n1 [1′-(4-Trifluoromethoxybenzenesulfonyl)-1′,2′,3′,6′-tetrahydro-[2,4′]bipyridinyl-6-carboxylic acid cyclopropylamide]"
16,110 nM,"O=C(NC1CC1)c1cccc(C2=CCN(S(=O)(=O)c3ccc(C(F)(F)F)cc3)CC2)n1 [1′-(4-Trifluoromethylbenzenesulfonyl)-1′,2′,3′,6′-tetrahydro-[2,4′]bipyridinyl-6-carboxylic acid cyclopropylamide]"
